Laboratory results taken from PubChem BioAssay (NCI).
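Exposure lasted 48 hours, with cells grown in 96-well plates and compounds tested at five concentrations. Definition used: TGI = concentration required for complete inhibition of growth.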

What was measured:
Test in all cases: NCI tumour cell line growth inhibition, 48 h
[1] = system: UACC-62 melanoma
[2] = system: OVCAR-4 ovarian
[3] = system: MDA-MB-231 breast
[4] = system: SW-620 colon
[5] = system: LOX IMVI melanoma
[6] = system: M14 melanoma
[7] = system: HCT-116 colon
[8] = system: TK-10 renal
[9] = system: CAKI-1 renal
[10] = system: MDA-MB-435
[11] = system: SK-OV-3 ovarian
[12] = system: HOP-62 NSCLC
[13] = system: UO-31 renal
[14] = system: MDA-N
[15] = system: MOLT-4 leukemia
[16] = system: SK-MEL-2 melanoma
[17] = system: MALME-3M melanoma
[18] = system: UACC-257 melanoma
[19] = system: SK-MEL-28 melanoma
[20] = system: OVCAR-8 ovarian
[21] = system: SNB-19 CNS
[22] = system: HT29 colon
[23] = system: A498 renal
[24] = system: DU-145 prostate
[25] = system: NCI-H522 lung
[26] = system: SF-539 CNS
[27] = system: KM12 colon
[28] = system: NCI/ADR-RES ovarian
[29] = system: CCRF-CEM leukemia
[30] = system: SF-295 CNS
[31] = system: EKVX NSCLC
[32] = system: SNB-75 CNS
[33] = system: NCI-H23 lung
[34] = system: ACHN renal
[35] = system: BT-549 breast
[36] = system: HCT-15 colon
[37] = system: T-47D breast
[38] = system: HL-60(TB) leukemia
[39] = system: SF-268 CNS
[40] = system: RXF 393 renal
[41] = system: SN12C renal
[42] = system: COLO 205 colon
[43] = system: NCI-H226 lung
[44] = system: HS 578T breast
[45] = system: IGROV1 ovarian
[46] = system: U251 CNS
[47] = system: 786-0 renal
[48] = system: OVCAR-5 ovarian
[49] = system: SK-MEL-5 melanoma
[50] = system: PC-3 prostate
[51] = system: A549 NSCLC
[52] = system: MCF7 breast
[53] = system: HOP-92 NSCLC
[54] = system: NCI-H460 lung
[55] = system: HCC-2998 colon
[56] = system: RPMI-8226 leukemia
[57] = system: K-562 leukemia
[58] = system: OVCAR-3 ovarian
[59] = system: SR leukemia

Measured: TGI

COC(=O)CN1C(=O)C2(C(=O)OC)OC1(c1ccc([N+](=O)[O-])cc1)C1C(=O)N(c3ccccc3)C(=O)C12 (configuration not stated)
> 100 µM: [1] | [2] | [3] | [4] | [5] | [6] | [7] | [8] | [9] | [10] | [11] | [12] | [13] | [14] | [15] | [16] | [17] | [18] | [19] | [20] | [21] | [22] | [23] | [24] | [25] | [26] | [27] | [28] | [29] | [30] | [31] | [32] | [33] | [34] | [35] | [36] | [37] | [38] | [39] | [40] | [41] | [42] | [43] | [44] | [45] | [46] | [47] | [48] | [49] | [50] | [51]

CCc1c(CNC2=NCCN2)c(CC)c(CNC2=NCCN2)c(CC)c1CNC1=NCCN1
> 100 µM: [1] | [2] | [52] | [4] | [6] | [7] | [8] | [9] | [10] | [11] | [12] | [13] | [14] | [15] | [16] | [17] | [18] | [19] | [20] | [21] | [22] | [23] | [53] | [24] | [25] | [26] | [54] | [55] | [27] | [28] | [29] | [30] | [31] | [32] | [33] | [34] | [35] | [36] | [37] | [39] | [40] | [41] | [56] | [57] | [42] | [43] | [58] | [44] | [45] | [46] | [47] | [48] | [49] | [59] | [50] | [51]
